{"source": "paper PMC9016125", "about": "(The Journal of Antibiotics, 2022)", "target": "T1, sortase A (SrtA) (Staphylococcus aureus, UniProt Q2FV99)", "T1 sequence (Q2FV99 1-206)": "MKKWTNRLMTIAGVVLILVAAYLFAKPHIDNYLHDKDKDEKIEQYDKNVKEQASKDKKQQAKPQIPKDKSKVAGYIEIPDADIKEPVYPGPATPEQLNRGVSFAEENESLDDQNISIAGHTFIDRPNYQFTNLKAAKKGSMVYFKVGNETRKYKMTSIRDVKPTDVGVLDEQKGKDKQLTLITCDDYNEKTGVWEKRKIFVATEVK", "test": "microscale thermophoresis with labeled purified SrtA", "assay_type": "binding", "data": [{"smiles": "Nc1c(Cl)cccc1C(=O)Nc1ccccc1C(=O)O", "note": "[compound 5, 2-(2-amino-3-chloro-benzoylamino)-benzoic acid]", "values": [{"measurement": "Kd", "value": 189, "unit": "µM"}]}]}
